Experimental data from ChEMBL document CHEMBL3885881, “DrugMatrix”.

Species: Rattus norvegicus
Test: DrugMatrix - Regimen: Daily Repeat
Format: toxicity, organism-based, Sprague-Dawley
Set-up: regimen Daily Repeat, gender Male, age 6-8 weeks
Settings: in vivo, sc, route subcutaneous, […]; for ABSOLUTE BASOPHIL / ABSOLUTE EOSINOPHIL / ABSOLUTE LYMPHOCYTE / ABSOLUTE MONOCYTE / ABSOLUTE SEGMENTED NEUTROPHIL / BASOPHIL / EOSINOPHIL / ERYTHROCYTE COUNT / HEMATOCRIT / HEMOGLOBIN / LEUKOCYTE COUNT / LYMPHOCYTE / MEAN CORPUSCULAR HEMOGLOBIN / MEAN CORPUSCULAR HEMOGLOBIN CONCENTRATION / MEAN CORPUSCULAR VOLUME / MONOCYTE / NEUTROPHIL / NUCLEATED RED BLOOD CELLS / PLATELET COUNT: tissue Blood; for ALANINE AMINOTRANSFERASE / ALBUMIN / ALKALINE PHOSPHATASE / ASPARTATE AMINOTRANSFERASE / BLOOD UREA NITROGEN / CARBON DIOXIDE / CHLORIDE / CHOLESTEROL / CREATINE PHOSPHOKINASE / CREATININE / GLUCOSE / LACTATE DEHYDROGENASE / LIPASE / PHOSPHORUS / POTASSIUM / SODIUM / TOTAL BILIRUBIN / TOTAL PROTEIN / URIC ACID: tissue Plasma
[1] = 0 mg/kg, 72 h, dose level Control, time 3 day
[2] = 0 mg/kg, 120 h, dose level Control, time 5 day
[3] = 1915 mg/kg, 72 h, dose level High, time 3 day
[4] = 1915 mg/kg, 120 h, dose level High, time 5 day

Question: What does the source list for `Cc1cc(O)cc(C)c1Cl` [CHLOROXYLENOL]?
Answer: ABSOLUTE BASOPHIL [1]: 0 CELLS/uL; ABSOLUTE EOSINOPHIL [1]: 92.33 CELLS/uL; ABSOLUTE LYMPHOCYTE [1]: 12247.5 CELLS/uL; ABSOLUTE MONOCYTE [1]: 389.67 CELLS/uL; ABSOLUTE SEGMENTED NEUTROPHIL [1]: 1320.5 CELLS/uL; BASOPHIL [1]: 0%; EOSINOPHIL [1]: 0.67%; ERYTHROCYTE COUNT [1]: 5.45 x10E6/uL; HEMATOCRIT [1]: 34.85%; HEMOGLOBIN [1]: 12.97 G/DL; LEUKOCYTE COUNT [1]: 14.05 x10E3/uL; LYMPHOCYTE [1]: 87.33%; MEAN CORPUSCULAR HEMOGLOBIN [1]: 23.78 pg; MEAN CORPUSCULAR HEMOGLOBIN CONCENTRATION [1]: 37.22 G/DL; MEAN CORPUSCULAR VOLUME [1]: 63.93 fL; MONOCYTE [1]: 2.67%; NEUTROPHIL [1]: 9.33%; NUCLEATED RED BLOOD CELLS [1]: 0 /100WBC; PLATELET COUNT [1]: 1174 x10E3/uL; ALANINE AMINOTRANSFERASE [1]: 48.83 u/L; ALBUMIN [1]: 4.23 G/DL; ALKALINE PHOSPHATASE [1]: 351.5 u/L; ASPARTATE AMINOTRANSFERASE [1]: 90 u/L; BLOOD UREA NITROGEN [1]: 15.33 mg/dL; CARBON DIOXIDE [1]: 23 mmol/L; CHLORIDE [1]: 103.5 MEQ/L; CHOLESTEROL [1]: 70.5 mg/dL; CREATINE PHOSPHOKINASE [1]: 651.83 u/L; CREATININE [1]: 0.22 mg/dL; GLUCOSE [1]: 180.67 mg/dL; LACTATE DEHYDROGENASE [1]: 165 u/L; LIPASE [1]: 9.33 u/L; PHOSPHORUS [1]: 12.03 mg/dL; POTASSIUM [1]: 6.17 MEQ/L; SODIUM [1]: 142.62 MEQ/L; TOTAL BILIRUBIN [1]: 0.2 mg/dL; TOTAL PROTEIN [1]: 5.73 G/DL; URIC ACID [1]: 1.77 mg/dL; ABSOLUTE BASOPHIL [2]: 0 CELLS/uL; ABSOLUTE EOSINOPHIL [2]: 0 CELLS/uL; ABSOLUTE LYMPHOCYTE [2]: 12736.67 CELLS/uL; ABSOLUTE MONOCYTE [2]: 253.5 CELLS/uL; ABSOLUTE SEGMENTED NEUTROPHIL [2]: 1193.17 CELLS/uL; BASOPHIL [2]: 0%; EOSINOPHIL [2]: 0%; ERYTHROCYTE COUNT [2]: 5.72 x10E6/uL; HEMATOCRIT [2]: 36.05%; HEMOGLOBIN [2]: 13.62 G/DL; LEUKOCYTE COUNT [2]: 14.18 x10E3/uL; LYMPHOCYTE [2]: 89.33%; MEAN CORPUSCULAR HEMOGLOBIN [2]: 23.83 pg; MEAN CORPUSCULAR HEMOGLOBIN CONCENTRATION [2]: 37.8 G/DL; MEAN CORPUSCULAR VOLUME [2]: 63.05 fL; MONOCYTE [2]: 1.83%; NEUTROPHIL [2]: 8.83%; NUCLEATED RED BLOOD CELLS [2]: 0 /100WBC; PLATELET COUNT [2]: 1322.17 x10E3/uL; ALANINE AMINOTRANSFERASE [2]: 48.83 u/L; ALBUMIN [2]: 4.27 G/DL; ALKALINE PHOSPHATASE [2]: 295.17 u/L; ASPARTATE AMINOTRANSFERASE [2]: 75.83 u/L; BLOOD UREA NITROGEN [2]: 15.5 mg/dL; CARBON DIOXIDE [2]: 30.5 mmol/L; CHLORIDE [2]: 102.33 MEQ/L; CHOLESTEROL [2]: 76.17 mg/dL; CREATINE PHOSPHOKINASE [2]: 205.5 u/L; CREATININE [2]: 0.2 mg/dL; GLUCOSE [2]: 149.67 mg/dL; LACTATE DEHYDROGENASE [2]: 124.5 u/L; LIPASE [2]: 10 u/L; PHOSPHORUS [2]: 10.93 mg/dL; POTASSIUM [2]: 6.59 MEQ/L; SODIUM [2]: 143.1 MEQ/L; TOTAL BILIRUBIN [2]: 0.2 mg/dL; TOTAL PROTEIN [2]: 6.05 G/DL; URIC ACID [2]: 1.45 mg/dL; ABSOLUTE BASOPHIL [3]: 0 CELLS/uL; ABSOLUTE EOSINOPHIL [3]: 0 CELLS/uL; ABSOLUTE LYMPHOCYTE [3]: 13518.33 CELLS/uL; ABSOLUTE MONOCYTE [3]: 372.33 CELLS/uL; ABSOLUTE SEGMENTED NEUTROPHIL [3]: 2242.67 CELLS/uL; BASOPHIL [3]: 0%; EOSINOPHIL [3]: 0%; ERYTHROCYTE COUNT [3]: 5.43 x10E6/uL; HEMATOCRIT [3]: 33.13%; HEMOGLOBIN [3]: 12.03 G/DL; LEUKOCYTE COUNT [3]: 16.13 x10E3/uL; LYMPHOCYTE [3]: 84.33%; MEAN CORPUSCULAR HEMOGLOBIN [3]: 22.17 pg; MEAN CORPUSCULAR HEMOGLOBIN CONCENTRATION [3]: 36.33 G/DL; MEAN CORPUSCULAR VOLUME [3]: 61.07 fL; MONOCYTE [3]: 2.33%; NEUTROPHIL [3]: 13.33%; NUCLEATED RED BLOOD CELLS [3]: 0 /100WBC; PLATELET COUNT [3]: 1126.33 x10E3/uL; ALANINE AMINOTRANSFERASE [3]: 50.33 u/L; ALBUMIN [3]: 3.67 G/DL; ALKALINE PHOSPHATASE [3]: 250.33 u/L; ASPARTATE AMINOTRANSFERASE [3]: 81.67 u/L; BLOOD UREA NITROGEN [3]: 18 mg/dL; CARBON DIOXIDE [3]: 24.33 mmol/L; CHLORIDE [3]: 104.33 MEQ/L; CHOLESTEROL [3]: 76.67 mg/dL; CREATINE PHOSPHOKINASE [3]: 276 u/L; CREATININE [3]: 0.18 mg/dL; GLUCOSE [3]: 175 mg/dL; LACTATE DEHYDROGENASE [3]: 84.67 u/L; LIPASE [3]: 8.67 u/L; PHOSPHORUS [3]: 11.43 mg/dL; POTASSIUM [3]: 6.05 MEQ/L; SODIUM [3]: 145.23 MEQ/L; TOTAL BILIRUBIN [3]: 0.13 mg/dL; TOTAL PROTEIN [3]: 5.67 G/DL; URIC ACID [3]: 2.13 mg/dL; ABSOLUTE BASOPHIL [4]: 0 CELLS/uL; ABSOLUTE EOSINOPHIL [4]: 164.67 CELLS/uL; ABSOLUTE LYMPHOCYTE [4]: 16889.67 CELLS/uL; ABSOLUTE MONOCYTE [4]: 1259.67 CELLS/uL; ABSOLUTE SEGMENTED NEUTROPHIL [4]: 6552.67 CELLS/uL; BASOPHIL [4]: 0%; EOSINOPHIL [4]: 0.67%; ERYTHROCYTE COUNT [4]: 5.49 x10E6/uL; HEMATOCRIT [4]: 33.1%; HEMOGLOBIN [4]: 12.6 G/DL; LEUKOCYTE COUNT [4]: 24.87 x10E3/uL; LYMPHOCYTE [4]: 68%; MEAN CORPUSCULAR HEMOGLOBIN [4]: 23.07 pg; MEAN CORPUSCULAR HEMOGLOBIN CONCENTRATION [4]: 38.1 G/DL; MEAN CORPUSCULAR VOLUME [4]: 60.43 fL; MONOCYTE [4]: 5%; NEUTROPHIL [4]: 26.33%; NUCLEATED RED BLOOD CELLS [4]: 0 /100WBC; PLATELET COUNT [4]: 1493 x10E3/uL; ALANINE AMINOTRANSFERASE [4]: 55.67 u/L; ALBUMIN [4]: 3.17 G/DL; ALKALINE PHOSPHATASE [4]: 330 u/L; ASPARTATE AMINOTRANSFERASE [4]: 87.67 u/L; BLOOD UREA NITROGEN [4]: 18.33 mg/dL; CARBON DIOXIDE [4]: 32 mmol/L; CHLORIDE [4]: 103.67 MEQ/L; CHOLESTEROL [4]: 77 mg/dL; CREATINE PHOSPHOKINASE [4]: 151 u/L; CREATININE [4]: 0.22 mg/dL; GLUCOSE [4]: 164 mg/dL; LACTATE DEHYDROGENASE [4]: 64 u/L; LIPASE [4]: 8 u/L; PHOSPHORUS [4]: 11.27 mg/dL; POTASSIUM [4]: 6.34 MEQ/L; SODIUM [4]: 145.63 MEQ/L; TOTAL BILIRUBIN [4]: 0.13 mg/dL; TOTAL PROTEIN [4]: 5.33 G/DL; URIC ACID [4]: 1.83 mg/dL
